Data set [1] can be described thus: Stability of the compound assessed as intramolecular cyclization/decomposition measured over 12 months. To be noted: 8766 h. The format is physicochemical.
Data set [2] is described as follows: Toxicity in mouse. The format is organism-based. Particulars: in vivo.
The nature of data set [3]: Stability of the compound in HCl-MeOH/HCl-1,4-dioxane/TFA-DCM assessed as release of gabapentin, O-nucleophile, 2-aza-spiro[4,5]decan-3-one. The data set is classed as physicochemical. Particulars: buffer.
Data set [4] can be described thus: Stability of the compound in HCl-MeOH/HCl-1,4-dioxane/TFA-DCM assessed as release of gabapentin, S-nucleophile, 2-aza-spiro[4,5]decan-3-one. The format is physicochemical. To be noted: buffer.
Data set [5] has as its system Mus musculus. Description: Toxicity in ip dosed SKH1-hrhr mouse assessed as change in reward licking events measured up to 3 hrs. To be noted: in vivo. The data set is classed as organism-based.
Data set [6] has as its system Mus musculus. Put plainly: Toxicity in ip dosed SKH1-hrhr mouse assessed as mortality measured up to 3 hrs. The format is organism-based. Particulars: in vivo.
In data set [7] the test system is Mus musculus. Description: Toxicity in ip dosed capasaicin-induced SKH1-hrhr mouse assessed as mortality measured up to 3 hrs. The data set is classed as organism-based. Particulars: in vivo.
The subject of data set [8] is Mus musculus. Description: Antinociceptive activity in ip dosed capsaicin-induced SKH1-hrhr mouse assessed change in reward licking events measured 30 mins post injection. The format is functional, organism-based.
In the next data set the test system is Cynomolgus monkey. Put plainly: Oral bioavailability in cynomolgus monkey assessed as gabapentin at 36 mg/kg. The data set is classed as ADME, organism-based, Macaca fascicularis. To be noted: in vivo.
Data set [9] can be described thus: Stability of the compound assessed as cyclization into tert-butyl 3-oxo-2-azaspiro[4.5]decane-2-carboxylate at room temperature measured over 12 months. Particulars: 8766 h. The data set is classed as physicochemical.
The nature of data set [10]: Oral bioavailability in cynomolgus monkey at 39 mg/kg. The data set is classed as ADME, organism-based, Macaca fascicularis. Particulars: in vivo.

Activity calls are given as the source filed them. The rule behind the calls is not given here.

For the molecule `C[C@H](NC(=O)OC(C)(C)C)C(=O)N[C@@H](Cc1ccccc1)C(=O)NCC1(CC(=O)O)CCCCC1`, in data set [1], the Stability entry is “Stable”.

In general, LD50 refers to the dose expected to kill half of the subjects tested. For `O=C1CC2(CCCCC2)CN1`, the median lethal dose (LD50) in data set [2] stood at 300 mg/kg.

Turning to `CC(C)CCC[C@@H](C)[C@H]1CC[C@H]2[C@@H]3CC=C4C[C@@H](OC(=O)CC5(CNC(=O)OC(C)(C)C)CCCCC5)CC[C@]4(C)[C@H]3CC[C@]12C`, the Stability result in [3] is “Unstable”. As for `CC(C)[C@H](N)C(=O)NCC1(CC(=O)O)CCCCC1`, in data set [1], the Stability entry is listed as “Stable”. Consider `CC(C)(C)OC(=O)NCC1(CC(=O)Sc2ccccc2)CCCCC1`, for which the Stability result in data set [4] was “Unstable”. Take `CC(N)C(=O)NC(Cc1ccccc1)C(=O)NCC1(CC(=O)O)CCCCC1.Cl` (racemic): in data set [1], the Stability result is on record as “Stable”.

Regarding `C[C@H](NC(=O)CNC(=O)OCc1ccccc1)C(=O)NCCC(=O)NCC1(CC(=O)O)CCCCC1`, the Stability entry in data set [1] is given as “Stable”. For the molecule `COC(=O)[C@H](CSC(=O)CC1(CNC(=O)OC(C)(C)C)CCCCC1)NC(=O)[C@H](Cc1ccccc1)NC(=O)OCc1ccccc1`, the Stability entry in [4] was “Unstable”.

Take `Cl.NCC1(CC(=O)NCc2ccccc2)CCCCC1`: the Activity result with Mus musculus [5] and in the data set with Mus musculus [6] was “Non-toxic” throughout.

With `C[C@H](N)C(=O)NCC1(CC(=O)O)CCCCC1`, the Stability result in [1] is “Stable”. For the same molecule, the Activity result in the data set on Mus musculus [5], in the data set on Mus musculus [7] and in the data set on Mus musculus [6] was “Non-toxic” in each case. Further, the outcome in the data set with Mus musculus [8] was Active. As to `CC(OC(=O)NCC1(CC(=O)O)CCCCC1)OC(=O)C(C)C` (stereo not given) [GABAPENTIN ENACARBIL], the F in the data set on Cynomolgus monkey is 84%.

As for `CC(C)[C@H]1CC[C@H](C)C[C@@H]1OC(=O)CC1(CNC(=O)OC(C)(C)C)CCCCC1`, the Stability result in data set [3] and in data set [9] was “Unstable” in each case. Broadly, the bioavailability is the share of a dose that reaches the circulation, judged against a reference dose that is usually intravenous. As to `NCC1(CC(=O)O)CCCCC1` [GABAPENTIN], the LD50 in data set [2] is over 8000 mg/kg. Besides, the Activity result in the data set with Mus musculus [5] and in the data set with Mus musculus [6] was “Non-toxic” each time. Further, in data set [10], the bioavailability is 25%. Regarding `C[C@H](NC(=O)CN)C(=O)NCCC(=O)NCC1(CC(=O)O)CCCCC1`, the Stability entry in data set [1] is on record as “Stable”. Regarding `C[C@H](NC(=O)OCc1ccccc1)C(=O)NCC1(CC(=O)O)CCCCC1`, in [1], the Stability result is given as “Stable”.

On to `CC(C)[C@H](NC(=O)OCc1ccccc1)C(=O)NCC1(CC(=O)O)CCCCC1`, for which the Stability entry in data set [1] was “Stable”.
